Assay: recombinant UMI read abundance after kanamycin selection (control-corrected) (log10(CPM+1)); higher = more efficient recombination; extreme values may be limits of the assay; sequences stand for … in AGTGCAGAGAAAATCGGCCAGTTTTCTCTGCCTGCAGTCCGCATGCCGTGGGACCCCTTGGGTTCTAACCTGTTGCCTAGATTTATGCAGCGGACTGCCTTTCTCCCAAAGTGATAAACCGG…AGGTTGGTTTCACT; site = the 11-nt donor
How it was run: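 Reported values are log10(CPM+1) from a pooled Escherichia coli screen of donor and donor-binding-loop pairs for the IS621 bridge recombinase. Selection used IPTG (0.07 mM) plus kanamycin, against unselected plating, each in two replicates. Recombinant UMIs were amplified across the donor–target junction, sequenced, converted to CPM, averaged over replicates and scaled by control-derived factors.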
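Note: IS621 bridge recombinase in Escherichia coli cells against a fixed T5 target plasmid.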

Sequence	recombinant UMI read abundance (log10)
CGGGGATCATGGACCGGTTTTCCCGGTAATCCGTATTTGTT (site CGGGGATCTAA)	2.63
CGGGTCCCATGGACCGGTTTTCCCGGTAATCCGTATTTGCC (site CGGGTCCCTGG)	1.39
CGGTACCCATGGACCGGTTTTCCCGGTAATCCGTATTTGGT (site CGGTACCCTAC)	0.0101
CGGTAGACATGGACCGGTTTTCCCGGTAATCCGTATTTGAG (site CGATAGACTCT)	2.01
CGGTAGACATGGACCGGTTTTCCCGGTAATCCGTATTTGAG (site CGCTAGACTCT)	0.37
CGGTAGACATGGACCGGTTTTCCCGGTAATCCGTATTTGAG (site CGGTAGACTCT)	1.9
CGGTAGACATGGACCGGTTTTCCCGGTAATCCGTATTTGAG (site CGTTAGACTCT)	0.371
CGGTAGTCATGGACCGGTTTTCCCGGTAATCCGTATTTGTT (site CGGTAGTCTAA)	3.15
CGGTATCCATGGACCGGTTTTCCCGGTAATCCGTATTTGCG (site CGGTATCCTCG)	0.378
CGGTATCCATGGACCGGTTTTCCCGGTAATCCGTATTTGTC (site CGGAATCCTAA)	0.00431
CGGTATCCATGGACCGGTTTTCCCGGTAATCCGTATTTGTC (site CGGTATCCTGA)	0
CGGTCAGCATGGACCGGTTTTCCCGGTAATCCGTATTTGCT (site CGATCATCTAG)	0
CGGTCAGCATGGACCGGTTTTCCCGGTAATCCGTATTTGCT (site CGGTCAGCTAG)	1.12
CGGTCGACATGGACCGGTTTTCCCGGTAATCCGTATTTGGG (site CAGTCGACTCC)	0.0262
CGGTCGACATGGACCGGTTTTCCCGGTAATCCGTATTTGGG (site CCGTCGACTCC)	0.0265
CGGTCGACATGGACCGGTTTTCCCGGTAATCCGTATTTGGG (site CGGTCGACTCC)	0.018
CGGTCGACATGGACCGGTTTTCCCGGTAATCCGTATTTGGG (site CTGTCGACTCC)	0.0407
CGGTCGACATGGACCGGTTTTCCCGGTAATCCGTATTTGTT (site CGATCGACTAA)	0.0167
CGGTCGACATGGACCGGTTTTCCCGGTAATCCGTATTTGTT (site CGCTCGACTAA)	0.00476
CGGTCGACATGGACCGGTTTTCCCGGTAATCCGTATTTGTT (site CGGTCGACTAA)	0.226
CGGTCGACATGGACCGGTTTTCCCGGTAATCCGTATTTGTT (site CGTTCGACTAA)	0.00264
CGGTGGACATGGACCGGTTTTCCCGGTAATCCGTATTTGTC (site CGGTGGACTGA)	2.27
CGGTTCCCATGGACCGGTTTTCCCGGTAATCCGTATTTGTG (site AGGTTCCCTCA)	0.0113
CGGTTCCCATGGACCGGTTTTCCCGGTAATCCGTATTTGTG (site CGGTTCCCTCA)	0.0387
CGGTTCCCATGGACCGGTTTTCCCGGTAATCCGTATTTGTG (site GGGTTCCCTCA)	0.0355

Sequence	recombinant UMI read abundance (log10)
CGGTTCCCATGGACCGGTTTTCCCGGTAATCCGTATTTGTG (site TGGTTCCCTCA)	0.0119
CGGTTGGCATGGACCGGTTTTCCCGGTAATCCGTATTTGCT (site CGATTGGCTAG)	0.3
CGGTTGGCATGGACCGGTTTTCCCGGTAATCCGTATTTGCT (site CGCTTGGCTAG)	0.00834
CGGTTGGCATGGACCGGTTTTCCCGGTAATCCGTATTTGCT (site CGGTTGGCTAG)	1.08
CGGTTGGCATGGACCGGTTTTCCCGGTAATCCGTATTTGCT (site CGTTTGGCTAG)	0
CGTAAGCCATGGACCGGTTTTCCCGGTAATCCGTATTTGTT (site CGGAATCCTAA)	0
CGTAAGCCATGGACCGGTTTTCCCGGTAATCCGTATTTGTT (site CGTAAGCCTAA)	0.666
CGTAATCCATGGACCGGTTTTCCCGGTAATCCGTATTTGTT (site CGAAATCCTAA)	0.00285
CGTAATCCATGGACCGGTTTTCCCGGTAATCCGTATTTGTT (site CGCAATCCTAA)	0
CGTAATCCATGGACCGGTTTTCCCGGTAATCCGTATTTGTT (site CGGAATCCTAA)	0.00347
CGTAATCCATGGACCGGTTTTCCCGGTAATCCGTATTTGTT (site CGTAATCCTAA)	0
CGTACATCATGGACCGGTTTTCCCGGTAATCCGTATTTGCT (site CGAACATCTAG)	0.623
CGTACATCATGGACCGGTTTTCCCGGTAATCCGTATTTGCT (site CGATCATCTAG)	0
CGTACATCATGGACCGGTTTTCCCGGTAATCCGTATTTGCT (site CGCACATCTAG)	0
CGTACATCATGGACCGGTTTTCCCGGTAATCCGTATTTGCT (site CGGACATCTAG)	0
CGTACATCATGGACCGGTTTTCCCGGTAATCCGTATTTGCT (site CGTACATCTAG)	1.39
CGTACCACATGGACCGGTTTTCCCGGTAATCCGTATTTGAG (site CGTACCACTCT)	1.06
CGTAGAACATGGACCGGTTTTCCCGGTAATCCGTATTTGCC (site CGTAGAACTGG)	2.75
CGTATGGCATGGACCGGTTTTCCCGGTAATCCGTATTTGCT (site CGTATGGCTAG)	0.895
CGTATGGCATGGACCGGTTTTCCCGGTAATCCGTATTTGCT (site CGTCTGGCTAG)	0
CGTATGGCATGGACCGGTTTTCCCGGTAATCCGTATTTGCT (site CGTGTGGCTAG)	0.0109
CGTATGGCATGGACCGGTTTTCCCGGTAATCCGTATTTGCT (site CGTTTGGCTAG)	0
CGTCTATCATGGACCGGTTTTCCCGGTAATCCGTATTTGCC (site CGTCTATCTGG)	2.64
CGTCTGACATGGACCGGTTTTCCCGGTAATCCGTATTTGAC (site CGTCTGACTGT)	0.908
CGTCTGGCATGGACCGGTTTTCCCGGTAATCCGTATTTGCT (site CGTATGGCTAG)	0

Sequence	recombinant UMI read abundance (log10)
CGTCTGGCATGGACCGGTTTTCCCGGTAATCCGTATTTGCT (site CGTCTGGCTAG)	0.46
CGTCTGGCATGGACCGGTTTTCCCGGTAATCCGTATTTGCT (site CGTGTGGCTAG)	0.00552
CGTCTGGCATGGACCGGTTTTCCCGGTAATCCGTATTTGCT (site CGTTTGGCTAG)	0
CGTCTTCCATGGACCGGTTTTCCCGGTAATCCGTATTTGTC (site CGTCTTCCTGA)	1.19
CGTGAGACATGGACCGGTTTTCCCGGTAATCCGTATTTGAG (site CGTAAGACTCT)	2.08
CGTGAGACATGGACCGGTTTTCCCGGTAATCCGTATTTGAG (site CGTCAGACTCT)	0.00623
CGTGAGACATGGACCGGTTTTCCCGGTAATCCGTATTTGAG (site CGTGAGACTCT)	2.08
CGTGAGACATGGACCGGTTTTCCCGGTAATCCGTATTTGAG (site CGTTAGACTCT)	0.167
CGTGCCTCATGGACCGGTTTTCCCGGTAATCCGTATTTGTC (site CGTGCCTCTGA)	2.03
CGTGGAACATGGACCGGTTTTCCCGGTAATCCGTATTTGTC (site CGTGGAACTAA)	0
CGTGGAACATGGACCGGTTTTCCCGGTAATCCGTATTTGTC (site CGTGGAACTCA)	0.0117
CGTGGAACATGGACCGGTTTTCCCGGTAATCCGTATTTGTC (site CGTGGAACTGA)	1.94
CGTGGAACATGGACCGGTTTTCCCGGTAATCCGTATTTGTC (site CGTGGAACTTA)	0.519
CGTGGACCATGGACCGGTTTTCCCGGTAATCCGTATTTGTT (site CGTGGAACTAA)	0.00973
CGTGGACCATGGACCGGTTTTCCCGGTAATCCGTATTTGTT (site CGTGGACCTAA)	0.0211
CGTGGACCATGGACCGGTTTTCCCGGTAATCCGTATTTGTT (site CGTGGAGCTAA)	0.0186
CGTGGACCATGGACCGGTTTTCCCGGTAATCCGTATTTGTT (site CGTGGATCTAA)	0.722
CGTGTATCATGGACCGGTTTTCCCGGTAATCCGTATTTGAC (site CGTGTATCTGT)	1.26
CGTGTATCATGGACCGGTTTTCCCGGTAATCCGTATTTGAC (site CTAGTATCTGT)	0
CGTTAAGCATGGACCGGTTTTCCCGGTAATCCGTATTTGAA (site CGTTAAGCTTT)	2
CGTTACACATGGACCGGTTTTCCCGGTAATCCGTATTTGAG (site CGTTAAACTCT)	0.00268
CGTTACACATGGACCGGTTTTCCCGGTAATCCGTATTTGAG (site CGTTACACTCT)	1.43
CGTTACACATGGACCGGTTTTCCCGGTAATCCGTATTTGAG (site CGTTAGACTCT)	0.0129
CGTTACACATGGACCGGTTTTCCCGGTAATCCGTATTTGAG (site CGTTATACTCT)	0.202
CGTTAGACATGGACCGGTTTTCCCGGTAATCCGTATTTGAC (site CGTTAGACTAT)	0.0518

Source: the supplement of paper PMC11208160
